This is an account of results in patent publication US20220370513A1, “COMPOSITION, ANTIOXIDANT AGENT, ANTISACCHARIFICATION AGENT, NEURITE OUTGROWTH PROMOTER, AND COGNITIVE FUNCTION IMPROVER” (YAMADA BEE COMPANY, INC., priority 2019, published 2022).

This test is described as follows: ORAC (oxygen radical absorption capacity) test. Type of test: biochemical. The conditions noted are these: Trolox equivalent. Here is the method:
The antioxidation capacity of the combination of propolis and each sample was verified by an oxygen radical absorption capacity (ORAC) test. The following samples were used.
Propolis: ethanol extract powder (Brazilian green propolis, containing arginine as an excipient)
Phosphatidylserine: synthetic product
Coffee fruit extract: water/ethanol extract powder
Gotu kola extract: water extract powder (containing less than 10% of maltodextrin as an excipient)
Each sample was dissolved in a 50% ethanol aqueous solution. […]
The obtained test solution was diluted with a 75 mM phosphate buffer and put into a 96-well plate, and a fluorescein solution was added thereto. When the 96-well plate was heated to 37° C., AAPH (2,2′-azobis(2-amidinopropane)dihydrochloride) was added, and the fluorescence intensity decay time was measured with a microplate reader every 5 minutes for 1.5 hours. A standard curve was created using Trolox as a standard reagent, and the antioxidation power of each sample was calculated as a Trolox equivalent (μmol TE/g).
In Table 1, the expected value is a sum of ORAC values of respective components alone in each combination. The rate of increase is a value obtained by multiplying a result obtained by dividing the measured value by the expected value by 100.

For the substance Phosphatidylserine, the “Single raw material ORAC” value stood at 12 μmol TE/g.
